Experiments:
Assay in all cases: […]cAMP formation from [alpha-32P]ATP, Sf9 membranes
Type in all cases: biochemical
[1] = biological target: T1, bovine AC1 (Bos taurus, UniProt P19754)
[2] = biological target: T2, canine AC5 (Canis lupus, UniProt P30803)
[3] = biological target: T3, rat AC2 (Rattus norvegicus, UniProt P26769)
[4] = biological target: T2, canine AC5; details: 300 µM; 7 mM Mg2+, 40 μM ATP, 10 μM GTPγS, pH 7.4, 30°C, 3% DMSO
[5] = biological target: T1, bovine AC1; details: 300 µM; 7 mM Mg2+, 40 μM ATP, 10 μM GTPγS, pH 7.4, 30°C, 3% DMSO
[6] = biological target: T3, rat AC2; details: 300 µM; 7 mM Mg2+, 40 μM ATP, 10 μM GTPγS, pH 7.4, 30°C, 3% DMSO

T2 sequence (P30803 whole entry): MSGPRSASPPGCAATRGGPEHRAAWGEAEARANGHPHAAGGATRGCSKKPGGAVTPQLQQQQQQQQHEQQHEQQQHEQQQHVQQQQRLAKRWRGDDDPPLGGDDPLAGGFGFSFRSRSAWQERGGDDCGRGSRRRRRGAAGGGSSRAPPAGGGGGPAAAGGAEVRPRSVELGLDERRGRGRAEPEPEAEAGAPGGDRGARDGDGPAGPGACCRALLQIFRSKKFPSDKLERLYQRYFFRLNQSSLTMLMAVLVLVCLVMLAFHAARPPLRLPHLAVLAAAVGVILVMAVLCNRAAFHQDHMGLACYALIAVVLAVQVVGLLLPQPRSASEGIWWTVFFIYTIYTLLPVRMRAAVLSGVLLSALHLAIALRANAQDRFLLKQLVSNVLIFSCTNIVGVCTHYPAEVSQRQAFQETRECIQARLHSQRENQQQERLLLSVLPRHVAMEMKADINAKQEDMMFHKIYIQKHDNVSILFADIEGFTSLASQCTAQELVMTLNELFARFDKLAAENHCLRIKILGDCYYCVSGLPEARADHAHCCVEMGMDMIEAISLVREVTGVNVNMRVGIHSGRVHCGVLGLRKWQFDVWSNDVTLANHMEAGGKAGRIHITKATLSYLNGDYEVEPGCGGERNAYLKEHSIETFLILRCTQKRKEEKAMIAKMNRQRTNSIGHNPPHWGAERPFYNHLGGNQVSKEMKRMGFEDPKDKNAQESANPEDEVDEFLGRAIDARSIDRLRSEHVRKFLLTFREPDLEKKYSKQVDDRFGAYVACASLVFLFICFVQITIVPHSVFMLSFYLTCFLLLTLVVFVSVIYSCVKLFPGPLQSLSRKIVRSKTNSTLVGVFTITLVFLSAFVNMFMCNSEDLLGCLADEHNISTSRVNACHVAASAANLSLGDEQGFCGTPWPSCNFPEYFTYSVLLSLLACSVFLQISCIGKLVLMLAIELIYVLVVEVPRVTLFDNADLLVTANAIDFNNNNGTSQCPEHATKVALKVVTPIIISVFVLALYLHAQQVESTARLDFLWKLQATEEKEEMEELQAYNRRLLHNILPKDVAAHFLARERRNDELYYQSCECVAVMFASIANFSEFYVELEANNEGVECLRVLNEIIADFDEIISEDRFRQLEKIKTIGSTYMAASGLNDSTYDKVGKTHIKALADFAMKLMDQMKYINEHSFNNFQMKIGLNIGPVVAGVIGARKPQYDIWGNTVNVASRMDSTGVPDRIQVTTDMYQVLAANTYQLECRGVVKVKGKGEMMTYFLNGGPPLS
T3 sequence (P26769 whole entry): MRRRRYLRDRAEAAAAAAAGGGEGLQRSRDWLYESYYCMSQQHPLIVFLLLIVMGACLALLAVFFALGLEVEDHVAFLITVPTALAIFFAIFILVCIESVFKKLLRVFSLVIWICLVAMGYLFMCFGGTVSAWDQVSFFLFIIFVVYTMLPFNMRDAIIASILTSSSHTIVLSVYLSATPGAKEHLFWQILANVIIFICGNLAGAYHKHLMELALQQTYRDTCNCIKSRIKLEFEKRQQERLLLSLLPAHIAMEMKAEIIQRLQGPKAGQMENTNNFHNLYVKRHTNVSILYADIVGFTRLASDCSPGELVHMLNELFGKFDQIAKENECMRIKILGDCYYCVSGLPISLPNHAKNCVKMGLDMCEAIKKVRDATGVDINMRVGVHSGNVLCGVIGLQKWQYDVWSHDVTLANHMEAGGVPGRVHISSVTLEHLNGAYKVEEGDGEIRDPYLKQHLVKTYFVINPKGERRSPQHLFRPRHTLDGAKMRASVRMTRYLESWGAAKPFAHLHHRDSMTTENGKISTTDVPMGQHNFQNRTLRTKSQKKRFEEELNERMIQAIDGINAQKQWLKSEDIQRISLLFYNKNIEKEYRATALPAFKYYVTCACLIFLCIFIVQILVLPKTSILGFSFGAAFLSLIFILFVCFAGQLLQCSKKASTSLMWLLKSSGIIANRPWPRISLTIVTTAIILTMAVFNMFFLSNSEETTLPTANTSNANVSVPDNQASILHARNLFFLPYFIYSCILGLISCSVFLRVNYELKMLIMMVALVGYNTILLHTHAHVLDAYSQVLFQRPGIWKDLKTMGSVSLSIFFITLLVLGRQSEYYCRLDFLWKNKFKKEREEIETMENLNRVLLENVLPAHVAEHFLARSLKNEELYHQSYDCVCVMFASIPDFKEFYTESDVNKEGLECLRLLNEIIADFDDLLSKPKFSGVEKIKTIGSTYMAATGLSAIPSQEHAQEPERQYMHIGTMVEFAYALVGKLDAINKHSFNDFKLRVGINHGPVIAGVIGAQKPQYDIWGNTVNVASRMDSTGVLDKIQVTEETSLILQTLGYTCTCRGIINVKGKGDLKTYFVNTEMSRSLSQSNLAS
T1 sequence (P19754 whole entry): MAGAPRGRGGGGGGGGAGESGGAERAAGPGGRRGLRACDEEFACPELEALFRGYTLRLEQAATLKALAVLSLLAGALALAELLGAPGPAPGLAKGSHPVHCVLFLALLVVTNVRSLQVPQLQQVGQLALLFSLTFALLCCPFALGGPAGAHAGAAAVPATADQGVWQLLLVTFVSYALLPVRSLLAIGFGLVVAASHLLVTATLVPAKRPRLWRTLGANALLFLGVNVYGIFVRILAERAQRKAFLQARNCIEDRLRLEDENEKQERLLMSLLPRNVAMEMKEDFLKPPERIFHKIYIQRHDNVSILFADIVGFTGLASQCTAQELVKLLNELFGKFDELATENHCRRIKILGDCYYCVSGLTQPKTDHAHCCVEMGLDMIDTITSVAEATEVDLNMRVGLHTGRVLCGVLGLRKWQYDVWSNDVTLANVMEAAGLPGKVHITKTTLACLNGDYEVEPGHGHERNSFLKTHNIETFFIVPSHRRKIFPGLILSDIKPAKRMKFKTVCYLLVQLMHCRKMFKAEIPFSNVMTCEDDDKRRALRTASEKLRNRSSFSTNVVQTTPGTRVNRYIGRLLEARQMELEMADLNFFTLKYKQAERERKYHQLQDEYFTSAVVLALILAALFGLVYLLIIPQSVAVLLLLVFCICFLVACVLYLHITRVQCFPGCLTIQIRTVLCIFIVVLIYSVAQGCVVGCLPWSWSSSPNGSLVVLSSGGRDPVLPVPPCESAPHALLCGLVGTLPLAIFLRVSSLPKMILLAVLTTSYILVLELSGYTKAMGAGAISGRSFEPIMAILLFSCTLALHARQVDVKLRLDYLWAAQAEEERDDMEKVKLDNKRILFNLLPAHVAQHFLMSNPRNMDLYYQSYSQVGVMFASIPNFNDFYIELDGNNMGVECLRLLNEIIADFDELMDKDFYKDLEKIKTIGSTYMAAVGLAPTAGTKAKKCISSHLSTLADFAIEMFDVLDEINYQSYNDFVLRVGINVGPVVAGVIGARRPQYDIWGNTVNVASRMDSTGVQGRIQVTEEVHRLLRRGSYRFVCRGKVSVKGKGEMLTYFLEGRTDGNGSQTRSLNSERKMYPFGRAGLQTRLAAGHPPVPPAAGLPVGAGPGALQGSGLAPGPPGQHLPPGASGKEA

Row | EC50 [1] | EC50 [2] | EC50 [3] | AC5 / Efficacy [%] [4] | AC1 / Efficacy [%] [5] | AC2 / Efficacy [%] [6] | Compound
1 | 5.5 ± 0.8 µM | 4.6 ± 1.5 µM | 47.3 ± 8.1 µM |  |  |  | C=C[C@@]1(C)CC(=O)[C@]2(O)[C@@]3(C)[C@@H](O)CCC(C)(C)[C@@H]3[C@H](O)[C@H](OC(C)=O)[C@@]2(C)O1 [FS]
2 | 16.8 ± 3 µM | 77.8 ± 46.1 µM | 242 ± 113 µM |  |  |  | C=C[C@@]1(C)CC(=O)[C@H]2[C@](C)(O1)[C@@H](OC(C)=O)[C@@H](O)[C@H]1C(C)(C)CC[C@H](O)[C@@]12C [9d-FS]
3 | 6.5 ± 2.1 µM | 52.1 ± 16.7 µM | 1.8 µM |  |  |  | C=C[C@@]1(C)CC(=O)[C@]2(O)[C@@]3(C)[C@@H](O)CCC(C)(C)[C@@H]3[C@H](OC(C)=O)[C@H](O)[C@@]2(C)O1 [6A7DA-FS]
4 |  |  |  | 14.7 ± 4.4% | 11.1 ± 4.7% | 1.7 ± 3.4% | C=C[C@@]1(C)CC(=O)[C@]2(O)[C@@]3(C)CCCC(C)(C)[C@@H]3[C@H](O)[C@H](OC(C)=O)[C@@]2(C)O1 [1d-FS]

Source: PMC5360100 (Biochemical pharmacology, 2011)
